Source: US9643964B2, “3-(2-aminopyrimidin-4-yl)-5-(3-hydroxypropynyl)-1H-pyrrolo[2,3-C]pyridine derivatives as NIK inhibitors for the treatment of cancer” (Janssen Pharmaceutica NV, priority 2013, dated 2017)

Key:
[1] = biological target: T1, Recombinant Human NF-kappaB-Inducing Kinase (NIK/MAP3K14) (Homo sapiens, UniProt Q99558); assay: Biological Assay A: inhibition of recombinant human NIK/MAP3K14 activity (MBP phosphorylation, Mesoscale); type: biochemical; conditions: for IC50: averaged over all measurements on all batches, read-out: Biochemical (MSD MBP) IC50; for inhibition at 10 µM: read-out: Biochemical (MSD MBP) Max % Inhib @ 10 μM (Average)
T1 sequence (Q99558 whole entry): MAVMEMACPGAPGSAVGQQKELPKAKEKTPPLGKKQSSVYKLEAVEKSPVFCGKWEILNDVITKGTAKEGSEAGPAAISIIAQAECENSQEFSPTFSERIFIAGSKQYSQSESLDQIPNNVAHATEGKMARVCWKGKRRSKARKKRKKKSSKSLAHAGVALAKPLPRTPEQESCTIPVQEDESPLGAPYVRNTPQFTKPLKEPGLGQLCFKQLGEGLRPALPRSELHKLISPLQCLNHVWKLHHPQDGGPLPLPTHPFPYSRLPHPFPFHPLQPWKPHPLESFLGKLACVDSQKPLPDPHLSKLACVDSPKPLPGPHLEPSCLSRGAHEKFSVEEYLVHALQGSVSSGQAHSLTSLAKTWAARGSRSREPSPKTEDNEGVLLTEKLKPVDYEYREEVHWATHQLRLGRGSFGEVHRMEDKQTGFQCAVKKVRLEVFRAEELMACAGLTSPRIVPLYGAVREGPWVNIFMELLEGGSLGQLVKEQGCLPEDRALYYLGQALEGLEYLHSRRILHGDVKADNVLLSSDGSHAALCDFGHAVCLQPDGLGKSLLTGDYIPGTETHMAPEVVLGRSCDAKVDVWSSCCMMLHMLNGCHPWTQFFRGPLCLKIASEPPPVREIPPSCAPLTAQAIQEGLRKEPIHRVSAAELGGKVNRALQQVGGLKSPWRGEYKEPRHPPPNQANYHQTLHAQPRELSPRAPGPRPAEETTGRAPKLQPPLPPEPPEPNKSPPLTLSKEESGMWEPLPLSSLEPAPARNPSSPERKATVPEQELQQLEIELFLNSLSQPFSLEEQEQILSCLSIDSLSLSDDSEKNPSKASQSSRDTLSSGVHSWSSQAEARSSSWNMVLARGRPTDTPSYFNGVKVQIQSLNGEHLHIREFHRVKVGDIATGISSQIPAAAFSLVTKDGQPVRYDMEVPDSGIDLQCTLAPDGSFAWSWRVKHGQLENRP
Description: Inhibition of Recombinant Human NF-kappaB-Inducing Kinase (NIK/MAP3K14) Activity
Assay buffer was 50 mM Tris pH 7.5 containing 1 mM EGTA (ethylene glycol tetraacetic acid), 1 mM DTT (dithiothreitol), 0.1 mM Na3VO4, 5 mM MgCl2, 0.01% Tween 20. Assays were carried out in 384 well Mesoscale high binding plates which had been coated with myelin basic protein (MBP) and blocked with bovine serum albumin to prevent non-specific protein binding. All compounds tested were dissolved in dimethyl sulfoxide (DMSO) and further dilutions were made in assay buffer. Final DMSO concentration was 1% (v/v) in assays. Incubations consisted of compound (1% DMSO in control and blank wells), 25 μM Adenosine-5′-triphosphate (ATP), and 10 nM NIK/MAP3K14 substituting enzyme with buffer in the blank wells. Incubations were carried out for 1 h at 25° C. and were followed by washing and sequential incubation with rabbit anti-phospho-MBP and anti-rabbit Ig Sulfotag antibody before reading bound Sulfotag on a Mesoscale Discovery. Signal obtained in the wells containing blank samples was subtracted from all other wells and IC50's were determined by fitting a sigmoidal curve to % inhibition of control versus Log10 compound concentration.

[2] = biological target: T1, Recombinant Human NF-kappaB-Inducing Kinase (NIK/MAP3K14); assay: Biological Assay A2: inhibition of auto-phosphorylation of recombinant human NIK/MAP3K14 (AlphaScreen); type: biochemical; conditions: for IC50: auto-phosphorylation, averaged over all measurements on all batches, read-out: αscreen IC50; for inhibition at 10 µM: read-out: αscreen Max % Inhib @ 10 μM (Average)
Description: Inhibition of Auto-Phosphorylation of Recombinant Human NF-kappaB-Inducing Kinase (NIK/MAP3K14) Activity (AlphaScreen®)
NIK/MAP3K14 auto-phosphorylation activity was measured using the AlphaScreen® (αscreen) format (Perkin Elmer). All compounds tested were dissolved in dimethyl sulfoxide (DMSO) and further dilutions were made in assay buffer. Final DMSO concentration was 1% (v/v) in assays. Assay buffer was 50 mM Tris pH 7.5 containing 1 mM EGTA (ethylene glycol tetraacetic acid), 1 mM DTT (dithiothreitol), 0.1 mM Na3VO4, 5 mM MgCl2, 0.01% Tween 20. Assays were carried out in 384 well Alphaplates (Perkin Elmer). Incubations consisted of compound, 25 microM Adenosine-5′-triphosphate (ATP), and 0.2 nM NIK/MAP3K14. Incubations were initiated by addition of GST-tagged NIK/MAP3K14 enzyme, carried out for 1 h at 25° C. and terminated by addition of stop buffer containing anti-phospho-IKK Ser176/180 antibody. Protein A Acceptor and Glutathione-Donor beads were added before reading using an EnVision® Multilabel Plate Reader (Perkin Elmer). Signal obtained in the wells containing blank samples was subtracted from all other wells and IC50's were determined by fitting a sigmoidal curve to % inhibition of control versus Log10 compound concentration.

LP-1 cells = assay: Biological Assay C: antiproliferative activity on LP-1 cells (CellTiter-Glo); type: cell-based, human; conditions: 72 hr treatment, averaged values
Description: (§1) Determination of Antiproliferative Activity on LP-1, L-363 and JJN-3 Cells
(§2) All compounds tested were dissolved in DMSO and further dilutions were made in culture medium. Final DMSO concentration was 0.3% (v/v) in cell proliferation assays. Viability was assessed using CellTiter-Glo cell viability assay kit (Promega). The human LP-1, L-363 and JJN-3 cells (DSMZ) were cultured in RPMI 1640 medium supplemented with 2 mM L-glutamine, and 10% fetal calf serum (PAA). Cells were routinely kept as suspension cells at 37° C. in a humidified 5% CO2 atmosphere. Cells were passaged at a seeding density of 0.2×10^6/ml twice a week. Cells were seeded in black tissue culture treated 96-well plates (Perkin Elmer). Densities used for plating ranged from 2,000 to 6,000 cells per well in a total volume of 75 μl medium. After twenty four hours, drugs and/or solvents were added (25 μl) to a final volume of 100 μl. Following 72 hr of treatment plates were removed from the incubator and allowed to equilibrate to room temperature for approx 10 min. 100 μl CellTiter-Glo reagent was added to each well that was then covered (Perkin Elmer Topseal) and shaken on plate shaker for 10 min. Luminescence was measured on a HTS Topcount (Perkin Elmer). Within an experiment, the results for each treatment were the mean of 2 replicate wells. For initial screening purposes, compounds were tested using a 9 point dilution curve (serial 1:3 dilutions). For each experiment, controls (containing no drug) and a blank incubation (containing cells read at the time of compound addition) were run in parallel. The blank value was subtracted from all control and sample values. For each sample, the mean value for cell growth (in relative light units) was expressed as a percentage of the mean value for cell growth of the control.

L-363 cells = assay: Biological Assay C: antiproliferative activity on L-363 cells (CellTiter-Glo); type: cell-based, human; conditions: 72 hr treatment, averaged values
Description: as §1, §2

JJN-3 cells = assay: Biological Assay C: antiproliferative activity on JJN-3 cells (CellTiter-Glo); type: cell-based, human; conditions: 72 hr treatment, averaged values
Description: as §1, §2

Structure (SMILES) | IC50 [1] | IC50 [2] | inhibition at 10 µM [1] | inhibition at 10 µM [2] | EC50 (LP-1 cells; Homo sapiens, LP-1, 72 h) | EC50 (L-363 cells; Homo sapiens, L-363, 72 h) | EC50 (JJN-3 cells; Homo sapiens, JJN-3, 72 h) | EC50 (LP-1 cells) | EC50 (L-363 cells) | EC50 (JJN-3 cells)
COCCC(C)(O)C#Cc1cc2c(-c3ccnc(N)n3)cn(CC(C)(C)O)c2cn1 (stereo not shown) [Compound 39] | 930 nM | 1600 nM | – | – | – | – | – | – | – | –
COCCn1cc(-c2ccnc(N)n2)c2cc(C#CC3(O)CCN(C)CC3)ncc21 [Compound 123] | – | – | 23% | 27% | – | – | – | – | – | –
CC(C)(O)Cn1cc(-c2ccnc(N)n2)c2cc(C#CC(C)(O)C3(C)COC3)ncc21 (stereo not shown) [Compound 47] | 2900 nM | 9200 nM | – | – | > 10000 nM | > 10000 nM | > 10000 nM | – | – | –
CC(C)(O)C#Cc1cc2c(-c3nc(N)ncc3F)cn(C3COC3)c2cn1 [Compound 74] | 17 nM | 43 nM | – | – | 1100 nM | 45 nM | 76 nM | – | – | –
CC(C)(O)Cn1cc(-c2ccnc(N)n2)c2cc(C#CCO)ncc21 [Compound 62] | 250 nM | 680 nM | – | – | 18000 nM | 880 nM | 970 nM | – | – | –
COCCn1cc(-c2ccnc(N)n2)c2cc(C#CC3(O)CNC3)ncc21 [Compound 125] | – | – | 18% | 24% | – | – | – | – | – | –
COCCn1cc(-c2ccnc(N)n2)c2cc(C#CC(C)(O)C3CNC3)ncc21 (stereo not shown) [Compound 124] | – | – | 40% | 33% | – | – | – | – | – | –
CN(C)C(=O)C(C)(O)C#Cc1cc2c(-c3ccnc(N)n3)cn(CC(C)(C)O)c2cn1 (stereo not shown) [Compound 63] | 600 nM | 780 nM | – | – | – | – | – | – | – | –
CC(C)(O)C#Cc1cc2c(-c3nc(N)ncc3C(F)(F)F)cn(CC(C)(C)O)c2cn1 [Compound 72] | 6.3 nM | 38 nM | – | – | 7200 nM | 190 nM | 320 nM | – | – | –
CC(C)n1cc(-c2ccnc(N)n2)c2cc(C#CCO)ncc21 [Compound 13] | 30 nM | 150 nM | – | – | 710 nM | 36 nM | 150 nM | – | – | –
CN1CCN(C(=O)n2cc(-c3nc(N)ncc3F)c3cc(C#CC(C)(O)C4CC4)ncc32)CC1 (stereo not shown) [Compound 134] | – | 110 nM | – | – | 24000 nM | 3000 nM | 4100 nM | – | – | –
COCCCn1cc(-c2nc(N)ncc2F)c2cc(C#CC(C)(C)O)nc(C)c21 [Compound 86] | – | 11 nM | – | – | 16 nM | 5.9 nM | 9.2 nM | – | – | –
[2H]C([2H])([2H])C(O)(C#Cc1cc2c(-c3nc(N)ncc3F)cn(C3CN(C4CC4)C3)c2cn1)C([2H])([2H])[2H] [Compound 160] | – | 82 nM | – | – | 210 nM | 93 nM | 110 nM | – | – | –
CC(O)(C#Cc1cc2c(-c3nc(N)ncc3F)cn(CCCN3CCOCC3)c2cn1)C1CC1 (stereo not shown) [Compound 105] | – | 190 nM | – | – | 530 nM | 140 nM | 200 nM | – | – | –
CCCN1CC(n2cc(-c3nc(N)ncc3F)c3cc(C#CC(C)(O)C4CC4)ncc32)C1 (stereo not shown) [Compound 139] | – | 98 nM | – | – | 340 nM | 160 nM | 220 nM | – | – | –
COC(C)(C)Cn1cc(-c2nc(N)ncc2F)c2cc(C#CC(C)(O)C3CC3)ncc21 (stereo not shown) [Compound 101] | – | 38 nM | – | – | 220 nM | 160 nM | 160 nM | – | – | –
CC(C)(O)C#Cc1cc2c(-c3nc(N)ncc3F)cn(C3CN(C4CC4)C3)c2cn1 [Compound 166] | – | 76 nM | – | – | 180 nM | 60 nM | 96 nM | – | – | –
COCCCn1cc(-c2nc(N)ncc2C)c2cc(C#CC(C)(C)O)ncc21 [Compound 83] | – | 86 nM | – | – | 4700 nM | 550 nM | 670 nM | – | – | –
CC(C)N1CC(n2cc(-c3ccnc(N)n3)c3cc(C#CC(C)(C)O)ncc32)C1 [Compound 80] | – | 76 nM | – | – | 2500 nM | 160 nM | 310 nM | – | – | –
COCCCn1cc(-c2nc(N)ncc2F)c2cc(C#CC(C)(C)O)nc(Cl)c21 [Compound 92] | – | 47 nM | – | – | 86 nM | 32 nM | 54 nM | – | – | –
CC(O)(C#Cc1cc2c(-c3nc(N)ncc3F)cn(C3CN(C4CC4)C3)c2cn1)C1CC1 (stereo not shown) [Compound 104] | – | 53 nM | – | – | 470 nM | 180 nM | 260 nM | – | – | –
COCC(C)N1CC(n2cc(-c3nc(N)ncc3F)c3cc(C#CC(C)(O)C4CC4)ncc32)C1 (stereo not shown) [Compound 162] | – | 340 nM | – | – | 790 nM | 350 nM | 370 nM | – | – | –
[2H]C([2H])([2H])C(O)(C#Cc1cc2c(-c3nc(N)ncc3F)cn(C3COC3)c2cn1)C1([2H])C([2H])([2H])C1([2H])[2H] (stereo not shown) [Compound 110] | – | 17 nM | – | – | 580 nM | 140 nM | 170 nM | – | – | –
CC(C)(O)C#Cc1cc2c(-c3nc(N)ncc3F)cn(CC3CCOCC3)c2cn1 [Compound 73] | 56 nM | 71 nM | – | – | 1600 nM | 140 nM | 190 nM | – | – | –
CC(O)(C#Cc1cc2c(-c3nc(N)ncc3F)cn(C3COC3)c2cn1)C1CC1 (single isomer, unassigned) [Compound 121] | – | 680 nM | – | – | – | – | – | 3400 nM | 1300 nM | 1400 nM
CC1(Cn2cc(-c3nc(N)ncc3F)c3cc(C#CC(C)(O)C4CC4)ncc32)COC1 (stereo not shown) [Compound 129] | – | 23 nM | – | – | 920 nM | 150 nM | 210 nM | – | – | –
